Measurements reported in paper PMC8459971, “Evaluation of the hepatotoxicity of the novel GPR40 (FFAR1) agonist CPL207280 in the rat and monkey” (PLoS ONE, 2021).
Values joined by “and” are separate entries in the source; they are usually repeats but may differ in a detail not shown here. Identical values can stand only once.

Experiments:
[1] = Stability in microsomes, rat; assay type: in vitro ADME; details: for average DEG [%]: rat microsomes, with cofactors
Protocol: The final incubation volume was 500 μL. Two control compounds (verapamil and donepezil) were included for each microsomal species, along with the appropriate vehicle control. The reactions were terminated by transferring 50 μL of incubate to 100 μL methanol containing an internal standard (metoprolol) at appropriate time points (0, 10, 20, 40, 60, and 120 min for the test compound and 0, 5, 10, 20, 40, and 60 min for the control compounds). The termination plates were centrifuged at 4000 x g at 4°C for 30 min to precipitate the protein. The supernatants were then collected for analysis, and LC-MS/MS was used for detection purposes. The system consisted of an Acquity™ Binary Solvent Manager, Acquity™ 4-position heated column manager, 2777 Ultra High Pressure Autosampler, and a Xevo-TQ MS triple quadrupole mass spectrometer (Waters Ltd., Herts, UK). This process was carried out twice.

NTCP = target: T1, NTCP (Homo sapiens, UniProt Q14973); assay: Uptake transporter inhibition assay, NTCP; assay type: cell-based; details: for Accumulation (counts per minute; CPM) HEK293-NTCP / Accumulation (counts per minute; CPM) HEK293FT-MOCK: NTCP
T1 construct: expressed in transfected cells; host or cells: HEK cells
T1 sequence (Q14973 1-349): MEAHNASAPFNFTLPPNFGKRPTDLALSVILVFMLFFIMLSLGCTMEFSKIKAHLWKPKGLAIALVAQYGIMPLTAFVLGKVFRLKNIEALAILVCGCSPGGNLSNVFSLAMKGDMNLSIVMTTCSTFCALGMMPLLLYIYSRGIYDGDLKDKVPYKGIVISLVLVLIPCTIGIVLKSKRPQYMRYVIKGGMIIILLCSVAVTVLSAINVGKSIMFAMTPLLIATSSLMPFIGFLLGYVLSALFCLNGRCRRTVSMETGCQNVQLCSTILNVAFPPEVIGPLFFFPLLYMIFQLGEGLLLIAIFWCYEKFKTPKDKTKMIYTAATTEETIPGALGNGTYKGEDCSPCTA
Protocol: For the uptake transporter inhibition assay, cells were washed twice with 100 μL of the appropriate buffer (HK, pH 7.4) for OATP1B1, followed by HBSS (pH 7.4) for (NTCP, OAT1, OAT2v1, OATP1A2, and OATP1B3). Uptake experiments were carried out at 37 ± 1°C in 50 μL of the respective buffer containing the probe substrate and the compound or solvent.

in vivo = details: for AUC(0-t): AUC24h (Mean); for AUC24h (Mean): both
BSEP = BSEP (Homo sapiens, UniProt O95342); assay: Vesicular transport inhibition assay, BSEP
Sequence of BSEP (O95342 whole entry): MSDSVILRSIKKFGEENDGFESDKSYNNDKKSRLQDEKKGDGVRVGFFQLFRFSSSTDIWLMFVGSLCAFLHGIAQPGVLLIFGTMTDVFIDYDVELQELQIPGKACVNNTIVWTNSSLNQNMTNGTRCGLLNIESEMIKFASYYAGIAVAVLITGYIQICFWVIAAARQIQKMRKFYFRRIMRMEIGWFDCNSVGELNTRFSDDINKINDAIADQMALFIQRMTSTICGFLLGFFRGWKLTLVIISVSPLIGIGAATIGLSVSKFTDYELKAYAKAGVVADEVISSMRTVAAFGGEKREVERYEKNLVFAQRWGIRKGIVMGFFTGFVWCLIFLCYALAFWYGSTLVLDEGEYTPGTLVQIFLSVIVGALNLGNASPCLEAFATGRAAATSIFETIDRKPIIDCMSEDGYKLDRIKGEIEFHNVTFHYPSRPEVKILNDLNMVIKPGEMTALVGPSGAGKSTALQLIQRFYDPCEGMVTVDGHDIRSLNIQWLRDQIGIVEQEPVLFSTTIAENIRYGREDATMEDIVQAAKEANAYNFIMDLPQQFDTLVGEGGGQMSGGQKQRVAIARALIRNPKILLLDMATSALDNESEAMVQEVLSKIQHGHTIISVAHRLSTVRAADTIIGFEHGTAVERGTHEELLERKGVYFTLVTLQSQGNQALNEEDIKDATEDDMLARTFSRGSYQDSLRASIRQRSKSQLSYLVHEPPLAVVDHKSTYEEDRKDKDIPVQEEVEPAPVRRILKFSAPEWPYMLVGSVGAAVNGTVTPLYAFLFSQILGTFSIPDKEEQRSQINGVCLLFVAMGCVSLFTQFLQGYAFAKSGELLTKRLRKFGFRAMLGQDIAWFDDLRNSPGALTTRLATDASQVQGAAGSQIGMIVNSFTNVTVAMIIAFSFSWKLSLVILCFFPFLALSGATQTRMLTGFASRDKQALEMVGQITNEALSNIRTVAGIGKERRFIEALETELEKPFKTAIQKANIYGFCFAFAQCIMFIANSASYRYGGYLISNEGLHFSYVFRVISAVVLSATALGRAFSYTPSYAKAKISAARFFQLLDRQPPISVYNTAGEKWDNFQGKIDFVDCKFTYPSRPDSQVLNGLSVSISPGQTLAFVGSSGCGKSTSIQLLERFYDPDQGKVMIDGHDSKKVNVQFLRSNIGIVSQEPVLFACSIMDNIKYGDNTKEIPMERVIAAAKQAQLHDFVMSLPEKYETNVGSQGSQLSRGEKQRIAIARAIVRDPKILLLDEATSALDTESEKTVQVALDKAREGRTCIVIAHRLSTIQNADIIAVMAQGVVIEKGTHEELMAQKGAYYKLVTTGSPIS

OATP1A2 = OATP1A2 (Homo sapiens, UniProt P46721); assay: Uptake transporter inhibition assay, OATP1A2; details: for Accumulation (counts per minute; CPM) HEK293FT-MOCK / Accumulation (counts per minute; CPM) HEK293FT-OATP1A2: OATP1A2;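 further: cellular uptake of a radiolabeled probe substrate in HBSS pH 7.4 at 37 °C with test compound or solvent, measured by liquid scintillation counting of cell lysates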
Sequence of OATP1A2 (P46721 whole entry): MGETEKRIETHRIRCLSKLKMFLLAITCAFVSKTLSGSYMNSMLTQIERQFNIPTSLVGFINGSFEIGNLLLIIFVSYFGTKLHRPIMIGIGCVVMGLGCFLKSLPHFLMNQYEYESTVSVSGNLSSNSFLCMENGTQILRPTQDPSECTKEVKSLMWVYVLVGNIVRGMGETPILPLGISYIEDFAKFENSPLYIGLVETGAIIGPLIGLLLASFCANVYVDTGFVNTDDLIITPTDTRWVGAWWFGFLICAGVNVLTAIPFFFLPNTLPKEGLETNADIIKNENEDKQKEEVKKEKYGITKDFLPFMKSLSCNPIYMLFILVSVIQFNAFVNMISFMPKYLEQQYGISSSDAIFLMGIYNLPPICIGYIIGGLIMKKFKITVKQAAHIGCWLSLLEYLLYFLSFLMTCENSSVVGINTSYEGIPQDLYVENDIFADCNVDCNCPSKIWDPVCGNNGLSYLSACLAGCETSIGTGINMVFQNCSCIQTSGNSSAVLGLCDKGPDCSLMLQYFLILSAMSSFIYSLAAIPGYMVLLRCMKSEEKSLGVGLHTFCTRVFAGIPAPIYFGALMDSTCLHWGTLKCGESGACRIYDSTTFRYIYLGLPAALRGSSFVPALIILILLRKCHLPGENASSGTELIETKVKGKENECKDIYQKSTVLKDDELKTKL
Protocol: (§1) For the uptake transporter inhibition assay, cells were washed twice with 100 μL of the appropriate buffer (HK, pH 7.4) for OATP1B1, followed by HBSS (pH 7.4) for (NTCP, OAT1, OAT2v1, OATP1A2, and OATP1B3). Uptake experiments were carried out at 37 ± 1°C in 50 μL of the respective buffer containing the probe substrate and the compound or solvent. […] After the experiment, cells were washed twice with 100 μL of cold appropriate buffer and lysed with 50 μL of 0.1 M NaOH. Radiolabeled probe substrate transport was determined by measuring an aliquot (35 μL) from each well for liquid scintillation counting.

OATP1B1 = target: T2, OATP1B1 (Homo sapiens, UniProt Q9Y6L6); assay: Uptake transporter inhibition assay, OATP1B1
T2 sequence (Q9Y6L6 1-691): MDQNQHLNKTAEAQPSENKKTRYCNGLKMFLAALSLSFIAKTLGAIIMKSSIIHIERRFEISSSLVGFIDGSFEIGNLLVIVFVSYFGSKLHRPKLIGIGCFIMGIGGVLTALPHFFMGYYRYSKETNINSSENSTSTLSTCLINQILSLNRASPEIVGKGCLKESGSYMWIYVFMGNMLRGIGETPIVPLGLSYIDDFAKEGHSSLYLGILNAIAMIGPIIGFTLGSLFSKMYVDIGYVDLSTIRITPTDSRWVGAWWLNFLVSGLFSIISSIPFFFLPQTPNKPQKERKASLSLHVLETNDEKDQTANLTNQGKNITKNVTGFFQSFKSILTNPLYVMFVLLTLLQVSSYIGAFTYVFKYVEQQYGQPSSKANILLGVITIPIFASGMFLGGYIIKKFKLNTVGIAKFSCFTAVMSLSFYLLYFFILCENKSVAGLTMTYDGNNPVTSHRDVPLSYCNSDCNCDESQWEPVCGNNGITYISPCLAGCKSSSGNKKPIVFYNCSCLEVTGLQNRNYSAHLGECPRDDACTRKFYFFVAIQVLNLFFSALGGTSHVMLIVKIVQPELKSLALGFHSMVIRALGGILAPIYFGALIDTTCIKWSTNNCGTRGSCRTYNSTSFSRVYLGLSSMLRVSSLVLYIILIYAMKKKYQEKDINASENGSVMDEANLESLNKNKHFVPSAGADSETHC
Protocol: as §1

[2] = Pharmacokinetics in mice, serum and liver concentrations; details: for serum conc: mouse, 3 mg/kg p.o., individual animals, 3 mg/kg
Protocol: The mice were separated into four groups of 32 mice per group. […] At time point t = 0, animals received a single dose of the compounds orally. […] Four hours after drug administration, the animals received standard chow. […] After solubilization in extraction buffer, the solutions were shaken for 1 min and then centrifuged for 4 min (4000 x g).

[3] = Rat (Sprague Dawley) microsomes, mean n = 2

## CC#C[C@@H](CC(=O)O)c1ccc(OCC(C)=C(C)C)cc1 [CPL207280]
[1]; [3]
  half-life at 3 μM: 1.15 h
  microsomal CLint at 3 μM: 21.1 µL/min/mg
[1]; 0 min
  average DEG [%]: 100.0%
[1]; 20 min
  average DEG [%]: 80.9%
[1]; 40 min
  average DEG [%]: 64.9%
[1]; 60 min
  average DEG [%]: 55.0%
NTCP; conc 0.10 µM
  Accumulation (counts per minute; CPM) HEK293-NTCP: 4707 CPM and 4966 CPM
  Accumulation (counts per minute; CPM) HEK293FT-MOCK: 25 CPM
NTCP; conc 1.00 µM
  Accumulation (counts per minute; CPM) HEK293-NTCP: 4654 CPM and 4992 CPM
  Accumulation (counts per minute; CPM) HEK293FT-MOCK: 29 CPM and 25 CPM
NTCP; conc 3.00 µM
  Accumulation (counts per minute; CPM) HEK293-NTCP: 4021 CPM and 4291 CPM
  Accumulation (counts per minute; CPM) HEK293FT-MOCK: 19 CPM and 23 CPM
NTCP; conc 10.00 µM
  Accumulation (counts per minute; CPM) HEK293-NTCP: 3614 CPM and 3535 CPM
  Accumulation (counts per minute; CPM) HEK293FT-MOCK: 24 CPM and 36 CPM
NTCP; conc 30.00 µM
  Accumulation (counts per minute; CPM) HEK293-NTCP: 2611 CPM and 3022 CPM
  Accumulation (counts per minute; CPM) HEK293FT-MOCK: 21 CPM
NTCP; conc 100.00 µM
  Accumulation (counts per minute; CPM) HEK293-NTCP: 1462 CPM and 1666 CPM
  Accumulation (counts per minute; CPM) HEK293FT-MOCK: 25 CPM and 27 CPM
NTCP; conc 300.00 µM
  Accumulation (counts per minute; CPM) HEK293-NTCP: 771 CPM and 846 CPM
  Accumulation (counts per minute; CPM) HEK293FT-MOCK: 29 CPM and 23 CPM
NTCP; transformed HEK cells, up to 300μM, n = 2
  IC50: 46.8 µM
In vivo
  Accumulation in rat plasma after repeat dose: No
In vivo; both sexes, Wistar Han, rat, 1200 mg/kg, Cmax
  Cmax at 14 days: 250 µg/mL
In vivo; both sexes, Wistar Han, rat, po, 150 mg/kg, Cmax
  Cmax: 125 µg/mL
In vivo; both sexes, Wistar Han, rat, po, 300 mg/kg/day
  AUC(0-t): 2350 µg·h/mL
In vivo; both sexes, Wistar Han, rat, po, 300 mg/kg/day, Cmax (Mean)
  Cmax: 227 µg/mL
In vivo; both sexes, Wistar Han, rat, po, 600 mg/kg/day
  AUC(0-t): 2920 µg·h/mL
In vivo; both sexes, Wistar Han, rat, po, 600 mg/kg/day, Cmax (Mean)
  Cmax: 257 µg/mL
In vivo; both sexes, Wistar Han, rat, po, 1200 mg/kg, Cmax
  Cmax: 222 µg/mL
In vivo; both sexes, Wistar Han, rat, po, 1200 mg/kg, exposure - AUC
  AUC: 2590 µg·h/mL
In vivo; Wistar Han, rat, po, 300 mg/kg/day
  AUC24h (Mean): 1605030 ng x hr/mL
In vivo; Wistar Han, rat, po, 600 mg/kg/day
  AUC24h (Mean): 2156620 ng x hr/mL
BSEP; conc 0.41 µM
  Accumulation (counts per minute; CPM) HEK293-BSEP: 13312 CPM and 13786 CPM and 14638 CPM
  Accumulation (counts per minute; CPM) HEK293-MOCK: 373 CPM and 338 CPM and 317 CPM
BSEP; conc 1.23 µM
  Accumulation (counts per minute; CPM) HEK293-BSEP: 14288 CPM and 14991 CPM and 14336 CPM
  Accumulation (counts per minute; CPM) HEK293-MOCK: 402 CPM and 297 CPM and 306 CPM
BSEP; conc 3.70 µM
  Accumulation (counts per minute; CPM) HEK293-BSEP: 14804 CPM and 15510 CPM and 14684 CPM
  Accumulation (counts per minute; CPM) HEK293-MOCK: 350 CPM and 288 CPM and 349 CPM
BSEP; conc 11.11 µM
  Accumulation (counts per minute; CPM) HEK293-BSEP: 14585 CPM and 13490 CPM and 14701 CPM
  Accumulation (counts per minute; CPM) HEK293-MOCK: 382 CPM and 355 CPM and 370 CPM
BSEP; conc 33.33 µM
  Accumulation (counts per minute; CPM) HEK293-BSEP: 14312 CPM and 13194 CPM and 13689 CPM
  Accumulation (counts per minute; CPM) HEK293-MOCK: 426 CPM and 364 CPM and 386 CPM
BSEP; conc 100 µM
  Accumulation (counts per minute; CPM) HEK293-BSEP: 10784 CPM and 11964 CPM and 11554 CPM
  Accumulation (counts per minute; CPM) HEK293-MOCK: 273 CPM and 371 CPM
OATP1A2
  IC50: 118 µM
  fold less inhibitory potency than TAK-875, OATP1A2: at least 10 fold
OATP1A2; conc 0.10 µM
  Accumulation (counts per minute; CPM) HEK293FT-MOCK: 191 CPM and 198 CPM
  Accumulation (counts per minute; CPM) HEK293FT-OATP1A2: 9941 CPM and 9363 CPM
OATP1A2; conc 1.00 µM
  Accumulation (counts per minute; CPM) HEK293FT-MOCK: 175 CPM and 167 CPM
  Accumulation (counts per minute; CPM) HEK293FT-OATP1A2: 9582 CPM and 8309 CPM
OATP1A2; conc 3.00 µM
  Accumulation (counts per minute; CPM) HEK293FT-MOCK: 170 CPM and 189 CPM
  Accumulation (counts per minute; CPM) HEK293FT-OATP1A2: 9105 CPM and 8526 CPM
OATP1A2; conc 10.00 µM
  Accumulation (counts per minute; CPM) HEK293FT-MOCK: 199 CPM and 184 CPM
  Accumulation (counts per minute; CPM) HEK293FT-OATP1A2: 8813 CPM and 8062 CPM
OATP1A2; conc 30.00 µM
  Accumulation (counts per minute; CPM) HEK293FT-MOCK: 160 CPM and 178 CPM
  Accumulation (counts per minute; CPM) HEK293FT-OATP1A2: 6805 CPM and 7468 CPM
OATP1A2; conc 100.00 µM
  Accumulation (counts per minute; CPM) HEK293FT-MOCK: 179 CPM and 165 CPM
  Accumulation (counts per minute; CPM) HEK293FT-OATP1A2: 5379 CPM and 5182 CPM
OATP1A2; conc 300.00 µM
  Accumulation (counts per minute; CPM) HEK293FT-MOCK: 144 CPM and 136 CPM
  Accumulation (counts per minute; CPM) HEK293FT-OATP1A2: 2696 CPM and 2783 CPM
OATP1B1
  IC50: 17.9 µM
  fold less inhibitory potency than TAK-875, OATP1B1: at least 10 fold
[2]; mice, single oral dose 3 mg/kg, 15 min to 24 h
  distribution between liver and serum: serum was observed to be the central compartment
[2]; 0.5 h
  serum conc: 6337 and 10977.8 and 8698.6 and 7860.2
[2]; 1 h
  serum conc: 14190.2 and 17872.7 and 14644.7 and 11914.7
[2]; 2 h
  serum conc: 4293.9 and 8727 and 12877.2 and 5407.3
[2]; 4 h
  serum conc: 1048.2 and 2271.3 and 3572 and 4146.1
[2]; 7 h
  serum conc: 456.3 and 1659.3 and 757.1 and 1712.9
[2]; 12 h
  serum conc: 198.5 and 247.1 and 27.4 and 10.5
[2]; 24 h
  serum conc: 14.5 and 37.9 and 532.6 and 298
[2]; summary comparison CPL207280 vs TAK-875
  Penetration into the liver: <
